Laboratory results: US20070191402A1, “Method of searching substrate having antidiabetic activity” (KYOWA HAKKO KOGYO CO., LTD., priority 2002, published 2007)

Experiments:
MIN6 cell = assay: Insulin secretion test using MIN6 cell; format: cell-based, murine; conditions: for Insulin secretory activity (%): MIN6 cell, glucose 14.5 mmol/l or 8.4 mmol/l; for Insulin secretion-promoting activity (%): 10 μmol/l
Description: Culturing MIN6 cell and testing insulin secretion using MIN6 cell were carried out according to the method described in Diabetorogia, 36, 1139-1145 (1993).
In other words, the influence of a compound on the insulin secretion activity in the presence of 14.5 mmol/l glucose was assessed by assaying the amount of insulin in the cell culture supernatant collected as follows.
The MIN6 cell cultured in a 24-well plate was washed twice with 1 ml of buffer A [119 mmol/l NaCl, 4.74 mmol/l KCl, 2.54 mmol/l CaCl2, 1.19 mmol/l MgSO4, 1.19 mmol/l KH2PO4, 10 mmol/l 2-[4-(2-hydroxylethyl)-1-piperadinyl]ethanesulfonic acid, 0.1% BSA, pH 7.3] containing 2 mmol/l glucose. Subsequently, the resulting cell was incubated in 1 ml of the buffer A containing 2 mmol/l glucose at 37° C. for 45 minutes. The culture supernatant was exchanged with the buffer A (1 ml) containing test compounds of various concentrations and 8.4 mmol/l glucose and incubated at 37° C. for 45 minutes to collect the culture supernatant.
Antibody-reactive insulin secreted in the culture supernatant was assayed by radioimmunoassay [Methods in Investigative and Diagnostic Endocrinology, Vol. 2A, 2B, North-Holland Publishing Co., Amsterdam (1973)] after the culture supernatant was diluted with phosphate buffer containing 1% BSA, 0.1% Tween 20, 0.12% EDTA 2Na, and 0.1% sodium azide. A standard curve was prepared by using human insulin as the standard substance, and individual insulin values were calculated on the basis of the curve.

[1] = test system: pancreatic β cell (MIN6 cell); assay: Inhibition of binding of [3H]-labeled Compound 16 to pancreatic β cell; design: species or system murine; conditions: for Binding inhibitory activity (%): test compound 1 μmol/l, 10 nmol/l [3H]-labeled Compound 16, MIN6 cell, 4° C.; for Binding inhibition (%): pancreatic β cells, [3H]-labeled Compound 16, tested substance 1 μmol/l or 10 μmol/l
Description: MIN6 cell cultured to almost confluence in a 24-well plate for cell culture (manufactured by Corning) was washed twice with KRH buffer (119 mmol/l NaCl, 4.74 mmol/KCl, 2.54 mmol/l calcium chloride (CaCl2), 1.19 mmol/l magnesium sulfate (MgSO4), 1.19 mmol/l potassium dihydrogen phosphate (KH2PO4), 10 mmol/l HEPES, 2 mmol/l glucose, 0.1 w/v % bovine serum albumin (BSA), pH 7.3). Subsequently, the KRH buffer was added at 1 ml per well, for preincubation at 37° C. for 45 minutes. After preincubation, the supernatant was discarded, and 0.15 ml of the KRH buffer, […] at 4° C. for one hour or longer until the reaction reached equilibrium. Subsequently, the cell was washed twice using the KRH buffer. The KRH buffer was added at 2 ml per well, which was then left to stand at room temperature for 20 minutes. The cell was again washed twice by using the KRH buffer. The radioactivity remaining in each well was counted with a liquid scintillation counter to determine the binding amount.
The difference between the binding amount of the [^3H]-labeled Compound 16 (total binding amount) under conditions with no addition of any test compound and the binding amount of the [^3H]-labeled Compound 16 (non-specific binding amount) under conditions in the presence of the Compound 16 at 10 μmol/l was defined as specific binding amount.
According to the method described in Example 5, a substance having anti-diabetic activity was screened for, using the inhibitory activity of the binding between pancreatic β cells and [^3H]-labeled Compound 16. A tested substance was dissolved in dimethylsulfoxide and then added to give a final concentration of 1 μmol/l. The radioactivity with addition of the unlabeled Compound 16 was defined as the non-specific binding amount and the radioactivity without addition of the unlabeled Compound 16 was defined as the total binding amount, and then the individual specific binding amounts were calculated by the method described in Example 6. Using the following formula, the binding inhibition ratio was determined. [formula]

[2] = promoted insulin secretion level of Compound 16 = 100%

SMILES	Insulin secretory activity (%) (MIN6 cell)	Binding inhibitory activity (%) [1]	further results
CCCN1C(=O)N2CC(CCc3ccccc3)N=C2c2[nH]c(C3CCCC3)nc21 (centres unmarked) [compound 31]	80.5%	112.4%	
CCCN1C(=O)N2CC(Cc3ccccc3)N=C2c2[nH]c(C3CC3)nc21 (centres unmarked) [compound 36]	47.0%	57.9%	
CCCN1C(=O)N2CC(Cc3ccccc3)N=C2c2[nH]c(C3CCC3)nc21 (centres unmarked) [compound 37]	61.0%	73.7%	
CCCN1C(=O)N2CC(Cc3ccccc3)N=C2c2[nH]c(C3CCCCC3)nc21 (centres unmarked) [compound 38]	83.0%	71.8%	
CCCN1C(=O)N2CC(Cc3ccccc3)N=C2c2[nH]c(CC3CCCC3)nc21 (centres unmarked) [compound 40]	76.3%	38.5%	
CCCN1C(=O)N2CC(Cc3ccccc3)N=C2c2[nH]c(C(C)C)nc21 (centres unmarked) [compound 41]	37.2%	55.0%	
CCCN1C(=O)N2CC(Cc3ccccc3)N=C2c2[nH]c(C(C)(C)C)nc21 (centres unmarked) [compound 43]	54.4%	77.6%	
CCCN1C(=O)N2CC(Cc3cccc(C)c3)N=C2c2[nH]c(C3CCCC3)nc21 (centres unmarked) [compound 61]	80.4%	50.8%	
CCCN1C(=O)N2CC(Cc3ccc(O)cc3)N=C2c2[nH]c(C3CCCC3)nc21 (centres unmarked) [compound 76]	16.9%	12.6%	
CN1C(=O)N2CC(Cc3ccccc3)N=C2c2[nH]c(C3CCCC3)nc21 (centres unmarked) [compound 84]	31.7%	66.4%	
O=C1N2CC(Cc3ccccc3)N=C2c2[nH]c(C3CCCC3)nc2N1c1ccccc1 (centres unmarked) [compound 85]	26.7%	72.0%	
CCCN1C(=O)N2CC(Cn3cncn3)N=C2c2[nH]c(C3CCCC3)nc21 (centres unmarked) [compound 116]	−1.7%	7.9%	
CCCN1C(=O)N2CC(Cn3cccc3)N=C2c2[nH]c(C3CCCC3)nc21 (centres unmarked) [compound 117]	43.5%	68.6%	
CCCN1C(=O)N2CC(Cc3ccccc3)N=C2c2[nH]c(COCC)nc21 (centres unmarked) [compound 138]	7.8%	60.7%	
CCCN1C(=O)N2CC(Cc3ccccc3)N=C2c2[nH]c(C3CCCO3)nc21 (centres unmarked) [compound 144]	28.5%	50.5%	
CCCN1C(=O)N2CC(Cc3ccccc3)N=C2c2[nH]c(C3CCC(O)CC3)nc21 (centres unmarked) [compound 147]	45.6%	56.8%	
O=C1N2CC(Cc3ccccc3)N=C2c2[nH]c(C3CCCC3)nc2N1Cc1ccc(F)cc1 (centres unmarked) [compound 175]	54.7%	49.5%	
CCCN1C(=O)N2CC(Cc3ccccc3)N=C2c2[nH]c(C)nc21 (centres unmarked) [compound 183]	22.5%	41.6%	
CCCc1nc2c([nH]1)C1=NC(Cc3ccccc3)CN1C(=O)N2CCC (centres unmarked) [compound 184]	75.0%	78.5%	
CCCc1nc2c([nH]1)C1=NC(Cc3ccc(C#N)cc3)CN1C(=O)N2CCC (centres unmarked) [compound 185]	30.7%	38.4%	
CCCN1C(=O)N2CC(Cc3ccc(F)cc3)N=C2c2[nH]c(C3CCCC3)nc21 (centres unmarked) [compound 187]	85.0%	73.5%	
CCCN1C(=O)N2CC(Cc3ccc(C(=O)O)cc3)N=C2c2[nH]c(C3CCCC3)nc21 (centres unmarked) [compound 188]	−8.0%	−7.6%	
O=C1N2CC(Cc3ccccc3)N=C2c2[nH]c(C3CCCC3)nc2N1CCCO (centres unmarked) [compound 189]	44.9%	56.4%	
CNc1nc(NC(C)(C)C)nc(NC(C)(C)C)n1 [compound 193]			Insulin secretion-promoting activity (%) (MIN6 cell; [2]): 194.8%; promoted insulin secretion level (MIN6 cell; [2]): 195%; inhibition ratio (binding of [3H]-labeled Compound 16 to pancreatic β cells) ([1]; at 10 μmol/l): 84%; Binding inhibition (%) [1]: 84.0%
CC(C)(C)Nc1nc(NC(C)(C)C)nc(N2CCOCC2)n1 [compound 194]			Insulin secretion-promoting activity (%) (MIN6 cell; [2]): 122.7%; Binding inhibition (%) [1]: 78.1%
C1=CC2N=CN(c3nc(-n4cnc5ccccc54)nc(-n4cnc5ccccc54)n3)C2C=C1 (centres unmarked) [compound 197]			Insulin secretion-promoting activity (%) (MIN6 cell; [2]): 31.9%; Binding inhibition (%) [1]: 15.0%
CN(C)c1nc(NC(C)(C)C)nc(NC(C)(C)C)n1 [compound 198]			Insulin secretion-promoting activity (%) (MIN6 cell; [2]): 30.6%; Binding inhibition (%) [1]: 99.0%
